Source: ChEMBL document CHEMBL3817769, “Expanding the chemical space of hydrophobic pharmacophores: the role of hydrophobic substructures in the development of novel transcription modulators” (2016)

Each compound was assayed on HL-60 (assay: Induction of differentiation in human HL60 cells after 20 mins by NBT reduction assay relative to retinoic acid).
Assay type: functional
Set-up: concentration or dose not given beside the values

Compound	Activity
CC(C)(C)c1cc(C(=O)/C=C/c2ccc(C(=O)O)cc2)cc(C(C)(C)C)c1	640%
C[Si](C)(C)c1cc(C(=O)Nc2ccc(C(=O)O)cc2)cc([Si](C)(C)C)c1 [AMSILAROTENE]	53%
C[Si](C)(C)c1cc(C(=O)/C=C/c2ccc(C(=O)O)cc2)cc([Si](C)(C)C)c1	860%
4-[3-(2,5-Bis-trimethylgermanyl-phenyl)-3-oxo-propenyl]-benzoic acid (Ch55G)	1000%
CC(C)(C)c1cc(C(=O)Nc2ccc(C(=O)O)cc2)cc(C(C)(C)C)c1	5.6%
